The values below come from patent publication US11655258B2, “Heterocycle derivatives as pesticides” (BAYER AKTIENGESELLSCHAFT, priority 2017, dated 2023).

Data set [1] has as its system Ctenocephalides felis. Kind of data set: Ctenocephalides felis in vitro contact test with adult cat fleas. The format is in vivo. The note with it: application rate 5 μg/cm^2 (=500 g of ai/ha), after 48 h. On the procedure: Ctenocephalides felis—In Vitro Contact Tests with Adult Cat Fleas
(§1) For the coating of the test tubes, 9 mg of active compound are first dissolved in 1 ml of acetone p.a. and then diluted to the desired concentration with acetone p.a. 250 μl of the solution are distributed homogeneously on the inner walls and the base of a 25 ml glass tube by turning and rocking on an orbital shaker (rocking rotation at 30 rpm for 2 h). With 900 ppm of active compound solution and internal surface area 44.7 cm^2, given homogeneous distribution, an area-based dose of 5 μg/cm^2 is achieved.
After the solvent has evaporated off, the tubes are populated with 5-10 adult cat fleas (Ctenocephalides felis), sealed with a perforated plastic lid and incubated in a horizontal position at room temperature and ambient humidity. After 48 h, efficacy is determined. To this end, the tubes are stood upright and the fleas are knocked to the base of the tube. Fleas which remain motionless at the base or move in an uncoordinated manner are considered to be dead or moribund.
100% efficacy means that all the fleas were dead or moribund. 0% efficacy means that no fleas were harmed.

For data set [2], the system named is Ctenocephalides felis. Kind of data set: Ctenocephalides felis oral test. The data set is classed as in vivo. The note with it: application rate 100 ppm in citrated cattle blood, after 2 days. On the procedure: Ctenocephalides felis—Oral Test • Solvent: dimethyl sulfoxide
To produce a suitable active compound formulation, 10 mg of active compound are mixed with 0.5 ml of dimethyl sulfoxide. Dilution with citrated cattle blood gives the desired concentration.
About 20 unfed adult cat fleas (Ctenocephalides felis) are placed into a chamber which is closed at the top and bottom with gauze. A metal cylinder whose bottom end is closed with parafilm is placed onto the chamber. The cylinder contains the blood/active compound formulation, which can be imbibed by the fleas through the parafilm membrane.
After 2 days, the kill in % is determined. 100% means that all of the fleas have been killed; 0% means that none of the fleas have been killed.

The test system of a further data set is Lucilia cuprina. The data set is described as follows: Lucilia cuprina test. The data set is classed as in vivo. The note with it: application rate 100 ppm, L1 larvae, after 2 days. The protocol: Lucilia cuprina Test • Solvent: dimethyl sulfoxide
(§2) To produce a suitable active compound formulation, 10 mg of active compound are mixed with 0.5 ml of dimethyl sulfoxide, and the concentrate is diluted with water to the desired concentration.
About 20 L1 larvae of the Australian sheep blowfly (Lucilia cuprina) are transferred into a test vessel containing minced horsemeat and the active compound formulation of the desired concentration.
After 2 days, the kill in % is determined. 100% means that all the larvae have been killed; 0% means that no larvae have been killed.

In data set [3] the test system is Myzus persicae. The data set is described as follows: Myzus persicae oral test. The format is in vivo. The note with it: 120 h, application rate 4 ppm, after 5 days, read-out: efficacy. On the procedure: Myzus persicae Oral Test • Solvent: 100 parts by weight of acetone
To produce a suitable preparation of active compound, 1 part by weight of active compound is dissolved using the specified parts by weight of solvent and made up with water until the desired concentration is attained.
50 μl of the active compound preparation are transferred into microtitre plates and made up to a final volume of 200 μl with 150 μl of IPL41 insect medium (33%+15% sugar). Subsequently, the plates are sealed with parafilm, which a mixed population of green peach aphids (Myzus persicae) within a second microtitre plate is able to puncture and imbibe the solution through.
(§3) After 5 days, the efficacy in % is determined. 100% means that all the aphids have been killed; 0% means that no aphids have been killed.

The subject of another data set is Phaedon cochleariae. The data set is described as follows: Phaedon cochleariae spray test. The format is in vivo. The note with it: 168 h, after 7 days, read-out: efficacy; for pest or weed control at 20 g/ha: application rate 20 g/ha; for pest or weed control at 100 g/ha: application rate 100 g/ha. The protocol: Phaedon cochleariae—Spray Test • Solvent: 78.0 parts by weight of acetone • 1.5 parts by weight of dimethylformamide • Emulsifier: alkylaryl polyglycol ether
(§4) To produce a suitable active compound preparation, 1 part by weight of active compound is dissolved using the stated parts by weight of solvent and made up with water containing an emulsifier concentration of 1000 ppm until the desired concentration is attained. To produce further test concentrations, the formulation is diluted with emulsifier-containing water.
Discs of Chinese cabbage leaves (Brassica pekinensis) are sprayed with an active compound formulation of the desired concentration and, after drying, populated with larvae of the mustard beetle (Phaedon cochleariae).
After 7 days, the efficacy in % is determined. 100% means that all the beetle larvae have been killed; 0% means that no beetle larvae have been killed.

Another data set deals with Spodoptera frugiperda. Kind of data set: Spodoptera frugiperda spray test. The data set is classed as in vivo. The note with it: application rate 100 g/ha, after 7 days. On the procedure:
Spodoptera frugiperda—Spray Test • Solvent: 78.0 parts by weight of acetone • 1.5 parts by weight of dimethylformamide • Emulsifier: alkylaryl polyglycol ether
as §4
Leaf discs of maize (Zea mays) are sprayed with an active compound formulation of the desired concentration and, after drying, populated with caterpillars of the fall armyworm (Spodoptera frugiperda).
After 7 days, the efficacy in % is determined. 100% means that all the caterpillars have been killed; 0% means that no caterpillar has been killed.

For a further data set, the system named is Aphis gossypii. Kind of data set: Aphis gossypii spray test (APHIGO). The format is in vivo. The note with it: 144 h, 6 dat, read-out: % efficacy. On the procedure:
Aphis gossypii Spray Test (APHIGO) • Solvent: 14 parts by weight of dimethylformamide • Emulsifier: alkylaryl polyglycol ether
(§5) To produce a suitable active compound preparation, 1 part by weight of active compound is dissolved using the stated parts by weight of solvent and made up with water containing an emulsifier concentration of 1000 ppm until the desired concentration is attained. To produce further test concentrations, the formulation is diluted with emulsifier-containing water. If the addition of ammonium salts or/and penetrants is required, these are each added in a concentration of 1000 ppm to the formulation solution.
Cotton plants (Gossypium hirsutum) heavily infested by the cotton aphid (Aphis gossypii) are sprayed with an active compound formulation of the desired concentration.
After the desired time, the kill in % is determined. 100% means that all the aphids have been killed; 0% means that no aphids have been killed.

Data set [4] relates to Myzus persicae. The data set is described as follows: Myzus persicae spray test (MYZUPE S), bell pepper plants. The format is in vivo. The note with it: 144 h, 6 dat, read-out: % efficacy. The protocol:
Myzus persicae—Spray Test (MYZUPE S) • Solvent: 14 parts by weight of dimethylformamide • Emulsifier: alkylaryl polyglycol ether
as §5
Bell pepper plants (Capsicum annuum) severely infested with the green peach aphid (Myzus persicae) are treated by spraying with the active compound formulation in the desired concentration.
After the desired time, the kill in % is determined. 100% means that all the animals have been killed; 0% means that no animals have been killed.

The subject of data set [5] is Myzus persicae. The data set is described as follows: Myzus persicae drench test (MYZUPE D), savoy cabbage. The format is in vivo. The note with it: soil, 240 h, 10 dat, read-out: % efficacy. The protocol: Myzus persicae—Drench Test (MYZUPE D) • Solvent: 7 parts by weight of dimethylformamide • Emulsifier: 2 parts by weight of alkylaryl polyglycol ether
To produce a suitable active compound preparation, 1 part by weight of active compound is mixed with the specified amounts of solvent and emulsifier, and the concentrate is diluted with water to the desired concentration, it being necessary to include the volume of soil which is drenched in the calculation. It should be ensured that a concentration of 40 ppm of emulsifier in the soil is not exceeded. To produce further test concentrations, water is used for dilution.
Savoy cabbage (Brassica oleracea) in pots with soil and infested by all stages of the green peach aphid (Myzus persicae) is watered with an active compound preparation of the desired concentration.
After the desired period of time, the efficacy in % is determined. 100% means that all the aphids have been killed; 0% means that no aphids have been killed.

The test system of a further data set is Nilaparvata lugens. Kind of data set: Nilaparvata lugens spray test (NILALU). The note with it: 96 h, 500 g/ha, 4 dat, read-out: % efficacy. The data set is classed as in vivo. On the procedure: Nilaparvata lugens—Spray Test (NILALU) • Solvent: 52.5 parts by weight of acetone • 7 parts by weight of dimethylformamide • Emulsifier: alkylaryl polyglycol ether
as §5
Rice plants (Oryza sativa) are sprayed with an active ingredient formulation of the desired concentration and then populated with larvae of the brown planthopper (Nilaparvata lugens).
After the desired period of time, the efficacy in % is determined. 100% means that all of the planthoppers have been killed; 0% means that none of the planthoppers have been killed.

A short description of data set [6]: log P by HPLC on reversed-phase column (EEC Directive 79/831 Annex V.A8). The format is physicochemical. The note with it: reversed-phase HPLC column (C18); pH 7.8, 0.001 molar aqueous ammonium bicarbonate/acetonitrile, 55° C.; read-out: log P (neutral). The protocol:
The log P values are measured according to EEC Directive 79/831 Annex V.A8 by HPLC (high-performance liquid chromatography) on a reversed-phase column (C 18). Temperature: 55° C.
The LC-MS determination in the neutral range is effected at pH 7.8 with 0.001 molar aqueous ammonium bicarbonate solution and acetonitrile as mobile phases; linear gradient from 10% acetonitrile to 95% acetonitrile. Called log P (neutral) in the table.
Calibration is carried out using unbranched alkan-2-ones (having 3 to 16 carbon atoms) with known Log P values (Log P values determined on the basis of the retention times by linear interpolation between two successive alkanones).

Another data set deals with Rhipicephalus sanguineus. The data set is described as follows: Rhipicephalus sanguineus in vitro contact test with adult brown dog ticks. The data set is classed as in vivo. The note with it: application rate 1 μg/cm^2 (=100 g of ai/ha), after 48 h. The protocol:
Rhipicephalus sanguineus—In Vitro Contact Tests with Adult Brown Doe Ticks
as §1
After the solvent has evaporated off, the tubes are populated with 5-10 adult dog ticks (Rhipicephalus sanguineus), sealed with a perforated plastic lid and incubated in a horizontal position in the dark at room temperature and ambient humidity. After 48 h, efficacy is determined. To this end, the ticks are knocked to the base of the tube and incubated on a hotplate at 45-50° C. for not more than 5 min. Ticks which remain motionless on the base or move in such an uncoordinated manner that they are unable to deliberately avoid the heat by climbing upwards are considered to be dead or moribund.
An efficacy of 100% means that all the ticks were dead or moribund. 0% efficacy means that none of the ticks were harmed.

The subject of data set [7] is Myzus persicae. The data set is described as follows: Myzus persicae spray test (Chinese cabbage leaf discs). The data set is classed as in vivo. The note with it: foliar, 120 h, application rate 100 g/ha, after 5 days, read-out: efficacy. On the procedure:
Myzus persicae Spray Test • Solvent: 78 parts by weight of acetone • 1.5 parts by weight of dimethylformamide • Emulsifier: alkylaryl polyglycol ether
as §4
Discs of Chinese cabbage leaves (Brassica pekinensis) infested by all stages of the green peach aphid (Myzus persicae) are sprayed with an active compound formulation of the desired concentration.
as §3

The test system of a further data set is Boophilus microplus. Kind of data set: Boophilus microplus injection test. The data set is classed as in vivo. The note with it: application rate 20 μg/animal, laying of fertile eggs after 7 days. The protocol: Boophilus microplus Injection Test • Solvent: dimethyl sulfoxide
To produce a suitable active compound formulation, 10 mg of active compound are mixed with 0.5 ml of solvent and the concentrate is diluted to the desired concentration with solvent.
1 μl of the active compound solution is injected into the abdomen of 5 engorged adult female cattle ticks (Boophilus microplus). The animals are transferred into dishes and kept in a climate-controlled room.
Efficacy is assessed after 7 days by laying of fertile eggs. Eggs which are not visibly fertile are stored in a climate-controlled cabinet until the larvae hatch after about 42 days. An efficacy of 100% means that none of the ticks has laid any fertile eggs; 0% means that all the eggs are fertile.

A further data set deals with Musca domestica. The data set is described as follows: Musca domestica test. The note with it: application rate 100 ppm, adult houseflies, after 2 days. The format is in vivo. On the procedure: Musca domestica Test • Solvent: dimethyl sulfoxide
as §2
Vessels containing a sponge treated with sugar solution and the desired concentration of active compound formulation are populated with 10 adult houseflies (Musca domestica).
After 2 days, the kill in % is determined. 100% means that all of the flies have been killed; 0% means that none of the flies have been killed.

For the molecule `CCS(=O)(=O)c1c(-c2nc3ccc(C(F)(F)F)cn3n2)nc2cc(C(F)(F)F)ccn12` [Example I-01], the efficacy in the data set with Ctenocephalides felis [1] and with Spodoptera frugiperda was 100% each time. The “efficacy (kill)” value in the data set with Ctenocephalides felis [2] and with Lucilia cuprina was 100% in each case. Moreover, the pest or weed control at 4 ppm with Myzus persicae [3] was 100%. For the same molecule, the pest or weed control at 20 g/ha with Phaedon cochleariae turned out to be 100%. Besides, in the data set with Phaedon cochleariae, the pest or weed control at 100 g/ha amounted to 100%. Also, the Emax at 20 ppm in the data set with Aphis gossypii was 99%; with Myzus persicae [4], 95%; with Myzus persicae [5], 90%. In the data set on Nilaparvata lugens, the Emax at 500 g/ha worked out at 80%. For the same molecule, the chromatographic logP in data set [6] was 2.41.

As to `CCS(=O)(=O)c1cc2ccccc2nc1-c1nc2cc(C(F)(F)F)ncn2n1` [Example I-05], the efficacy in the data set with Ctenocephalides felis [1] is recorded as 100%; with Rhipicephalus sanguineus, 80%; with Spodoptera frugiperda, 100%. Further, the entries for the “efficacy (kill)” value with Ctenocephalides felis [2] and with Lucilia cuprina were 95% and 100%, respectively. Besides, the pest or weed control at 4 ppm in the data set on Myzus persicae [3] was 100%. The pest or weed control at 100 g/ha came out at 90% in the data set on Myzus persicae [7] and 100% in the data set on Phaedon cochleariae. For the same molecule, the pest or weed control at 20 g/ha with Phaedon cochleariae worked out at 100%.

On to `CCS(=O)(=O)c1c(-c2nc3ccc(C(F)(F)F)cn3n2)nc2cc(NC(=O)C3CC3)ccn12` [Example I-09], for which the efficacy in the data set on Boophilus microplus came to 100%. The “efficacy (kill)” value with Ctenocephalides felis [2] was 95%. Besides, in the data set on Myzus persicae [3], the pest or weed control at 4 ppm is 100%.

`CCS(=O)(=O)c1c(-c2nc3ccc(C(F)(F)F)cn3n2)nc2cc(I)ccn12` [Example I-12]: the efficacy with Ctenocephalides felis [1] and in the data set on Spodoptera frugiperda was 100% in each case. Besides, the “efficacy (kill)” value is recorded as 100% in the data set with Lucilia cuprina and 90% with Musca domestica. Further, in the data set on Myzus persicae [3], the pest or weed control at 4 ppm was 90%. Further, the pest or weed control at 20 g/ha in the data set with Phaedon cochleariae was found to be 100%. Also, the pest or weed control at 100 g/ha in the data set with Phaedon cochleariae is 100%.
